# Experimental data as given in patent publication US10239856B2, “Synthesis of resorcylic acid lactones useful as therapeutic agents” (UNIVERSITY DE STRASBOURG, priority 2008, dated 2019).
# Like-named read-outs stand apart in the source and are kept apart here.
# How the values were obtained:
# [1] = test system: ErbB2 in SK-BR3; experiment: Degradation of HSP90 client ErbB2 in SK-BR3, Western blotting after 18 hrs treatment; format: cell-based; details: SK-BR3, 18 hrs treatment, E-oxime isomer
# [2] = test system: HCC1954; experiment: Cytotoxicity against HCC1954 breast cancer cells; format: cell-based; details: Homo sapiens, second value of cell
# Protocol: (§1) Compounds of the invention were assayed for cytotoxicity in HCC1954 and SK-BR-3 tumor cells.
# [3] = test system: BT-474 (breast tumor cell line) xenograft; experiment: BT-474 breast tumor xenograft in CB17/SCID mice; format: in vivo; design: Regression in tumor volume / Inhibition of tumor growth: dose or concentration left out as unconfirmed
# Protocol: FIG. 1 depicts the tumor volume and animal weight change following treatment with compound 13a or control vehicle. Each point represents the mean of measurements from 5 (for vehicle) or 6 (for 13a) animals. The experiment was carried out for 28 days and tumor volumes were determined weekly by caliper measurement. Student's t-test was used to determine the statistical analysis of the difference between tumor volumes of vehicle-treated and drug-treated animals. Individual body weights were also determined weekly. Statistical significance was achieved (comparing tumor volumes in vehicle-treated and drug-treated animals) at day 21 for the q4d schedule (p=0.0497). In comparison, on the q2d schedule increasing statistical significance was achieved on days 14, 21, and 28, when comparing tumor volume of vehicle-treated and drug-treated animals (p=0.012, p=0.007, and p=0.0002, respectively).
# Top panels represent hematoxylin & eosin (H & E) stained paraffin sections. Nuclei appear blue in color. The dark blue condensed nuclei in drug-treated tumors (right) are consistent with apoptotic cells. […] Bottom panels represent TUNEL (terminal deoxynucleotidyl transferase-mediated dUTP-biotin nick end labeling)-stained paraffin sections. The high preponderance of reddish-pink nuclei (positive for TUNEL staining) in the drug-treated tumors reflects DNA fragmentation which is characteristic of apoptosis. Blue arrowheads point to characteristic TUNEL positive nuclei.
# Two schedules of 100 mg every other day (q2d) or every four days (q4d) during 28 days were investigated.
# Based on the in vitro data shown in Table 3, compound 13a was further evaluated in vivo.
# [4] = test system: Her-2 (HSP90 client); experiment: Her-2 (HSP90 client) degradation (client depletion); format: cell-based
# Protocol: A number of the compounds of the invention were tested for affinity to HSP90α (see Kim et al., J. Biomol. Screen., 2004, 9, 375), Her-2 (HSP90 client) degradation (see Xu et al., J. Biol. Chem., 2001, 276, 3702), and cytotoxicity against SKBr3 and HCC1954, two breast cancer cell lines which over express Her-2.
# [5] = test system: SKBr3; experiment: Cytotoxicity against SKBr3 breast cancer cells; format: cell-based; details: Homo sapiens, SK-BR-3, first value of cell
# Protocol: as §1
# [6] = biological target: HSP90α (Homo sapiens, UniProt P07900); experiment: Affinity to HSP90α; format: binding
# [7] = test system: HSP90; details: cited from earlier work
# [8] = Her-2 degradation; read-out: Client Depletion
# [9] = read-out: Client Depletion; Her-2 degradation
SMILES,IC50 [2] [µM],"IC50 [4, 8] [nM]",IC50 [5] [µM],IC50 ([6]; read-out: HSP90 affinity) [nM],"IC50 [4, 9] [nM]",IC50 ([6]; HSP90 affinity) [nM],also measured
O=C1OCC/C=C/CC/C=C/C(=N/OCC(=O)N2CCCCC2)Cc2c(Cl)c(O)cc(O)c21 [13a],0.32,35,0.125,21,–,–,"Reduction of ErbB2 concentration compared with radicicol and 17-AAG [1]: significantly more effective than both radicicol and 17-AAG; Weight loss ([3]; q2d and q4d schedules, 28 days): Neither the q2d nor the q4d schedules resulted in significant weight loss; Inhibition of tumor growth ([3]; q2d or q4d during 28 days): dose-dependent inhibition of the tumor growth; Regression in tumor volume ([3]; q2d schedule, 28 days): 18%; Tumor histology: cellularity ([3]; q2d schedule, 28 days): dramatic loss of cellularity; Tumor nuclear TUNEL staining (apoptosis) ([3]; q2d schedule, 28 days): high degree of nuclear TUNEL staining"
C=CCC/C=C/C(Cc1c(Cl)c(O)cc(O)c1C(=O)OCCC=C)=NOCC(=O)N1CCCCC1 [13m],> 10,> 10000,> 10,> 10000,–,–,–
O=C1OCC/C=C/CC/C=C/C(=NOCC(=O)N2CCNCC2)Cc2c(Cl)c(O)cc(O)c21 [13e],> 10,> 10000,> 10,> 10000,–,–,–
O=C1OCC/C=C/CC/C=C/C(=NOCC(=O)N2CCOCC2)Cc2c(Cl)c(O)cc(O)c21 [13d],> 10,> 10000,> 10,220,–,–,–
O=C(CON=C1/C=C/CC/C=C/CCOC(=O)c2c(O)cc(O)c(Cl)c2C1)NCCO [13h],> 10,7700,7.5,390,–,–,–
C[C@@H]1CC2O[C@@H]2CC/C=C/C(=O)Cc2c(Cl)c(O)cc(O)c2C(=O)O1 (stereo partly shown) [pochonin A],–,–,–,–,–,–,Inhibitor of HSP90 [7]: 90 nM
CNC(=O)CON=C1/C=C/CC/C=C/CCOC(=O)c2c(O)cc(O)c(Cl)c2C1 [13i],> 10,–,> 10,1200,–,–,–
O=C1OCC/C=C/CC/C=C/C(=N\OCC(=O)N2CCCCC2)Cc2c(Cl)c(O)cc(O)c21 [14a],5.2,> 10000,> 10,1800,–,–,–
O=C1OCC/C=C/CC/C=C/C(=N/OCC(=O)N2CCCCC2)Cc2cc(O)cc(O)c21 [13b],0.22,–,0.12,–,50,15,Reduction of ErbB2 concentration compared with radicicol and 17-AAG [1]: significantly more effective than both radicicol and 17-AAG
O=C1OCC/C=C/CC/C=C/C(=N\OCC(=O)N2CCCCC2)Cc2cc(O)cc(O)c21 [14b],> 10,–,> 10,–,5000,110,–
O=C(CON=C1/C=C/CC/C=C/CCOC(=O)c2c(O)cc(O)c(Cl)c2C1)NCc1ccccc1 [13j],8.5,5500,3.5,110,–,–,–
O=C(CON=C1/C=C/CC/C=C/CCOC(=O)c2c(O)cc(O)c(Cl)c2C1)NC1CCCCC1 [13k],0.45,250,0.55,90,–,–,–
COC1CC/C=C/CCOC(=O)c2c(O)cc(O)c(Cl)c2C/C(=N\OCC(=O)N2CCCCC2)C1 (stereo not shown) [13f],2.8,2400,1.3,68,–,–,–
CC(C)N(C(=O)CON=C1/C=C/CC/C=C/CCOC(=O)c2c(O)cc(O)cc2C1)C(C)C [compound 379],–,–,–,–,627,162,–
C[C@@H]1C/C=C/CC/C=C/C(=N/OCC(=O)N2CCCCC2)Cc2cc(O)cc(O)c2C(=O)O1 [13c],0.63,–,0.45,–,26,18,Reduction of ErbB2 concentration compared with radicicol and 17-AAG [1]: significantly more effective than both radicicol and 17-AAG
COC(=O)CON=C1/C=C/CC/C=C/CCOC(=O)c2c(O)cc(O)c(Cl)c2C1 [13l],> 10,6500,> 10,190,–,–,–
CC1C=CC(C)N1C(=O)CON=C1/C=C/CC/C=C/CCOC(=O)c2c(O)cc(O)cc2C1 (stereo not shown) [compound 387],–,–,–,–,568,118,–
O=C1OCC/C=C/CC/C=C/C(=NOCC(=O)N2CCC(c3ccccc3)CC2)Cc2cc(O)cc(O)c21 [compound 376],–,–,–,–,> 10000,2240,–
